Source: publication PMC9516332 (Frontiers in Oncology, 2022)
Where two headings read alike, the source gives them in different places.

How the values were obtained:
Test in all cases: Kinase panel profiling at 1 µmol/L (MSA or IMAP), percentage inhibition
Assay type in all cases: biochemical
[1] = target: panel of 255 wild-type kinases (Homo sapiens, UniProt Q9Y6E0); details: read-out: %-inhibition, MST3
[2] = target: panel of 255 wild-type kinases (Homo sapiens, UniProt Q15759); details: read-out: %-inhibition, p38β
[3] = target: panel of 255 wild-type kinases (Homo sapiens, UniProt Q96GD4); details: read-out: %-inhibition AurB
[4] = target: panel of 255 wild-type kinases (Homo sapiens, UniProt P17252); details: read-out: %-inhibition at 1 µmol/L, PKCα
[5] = target: panel of 255 wild-type kinases (Homo sapiens, UniProt Q9H2G2); details: read-out: %-inhibition at 1 µmol/L, SLK
[6] = target: panel of 255 wild-type kinases (Homo sapiens, UniProt P51812); details: read-out: %-inhibition at 1 µmol/L, RSK2
[7] = target: panel of 255 wild-type kinases (Homo sapiens, UniProt O43683); details: read-out: %-inhibition BUB1/BUB3
[8] = target: T1, panel of 255 wild-type kinases (Homo sapiens, UniProt P30530); details: read-out: %-inhibition AXL
T1 sequence (P30530 26-894): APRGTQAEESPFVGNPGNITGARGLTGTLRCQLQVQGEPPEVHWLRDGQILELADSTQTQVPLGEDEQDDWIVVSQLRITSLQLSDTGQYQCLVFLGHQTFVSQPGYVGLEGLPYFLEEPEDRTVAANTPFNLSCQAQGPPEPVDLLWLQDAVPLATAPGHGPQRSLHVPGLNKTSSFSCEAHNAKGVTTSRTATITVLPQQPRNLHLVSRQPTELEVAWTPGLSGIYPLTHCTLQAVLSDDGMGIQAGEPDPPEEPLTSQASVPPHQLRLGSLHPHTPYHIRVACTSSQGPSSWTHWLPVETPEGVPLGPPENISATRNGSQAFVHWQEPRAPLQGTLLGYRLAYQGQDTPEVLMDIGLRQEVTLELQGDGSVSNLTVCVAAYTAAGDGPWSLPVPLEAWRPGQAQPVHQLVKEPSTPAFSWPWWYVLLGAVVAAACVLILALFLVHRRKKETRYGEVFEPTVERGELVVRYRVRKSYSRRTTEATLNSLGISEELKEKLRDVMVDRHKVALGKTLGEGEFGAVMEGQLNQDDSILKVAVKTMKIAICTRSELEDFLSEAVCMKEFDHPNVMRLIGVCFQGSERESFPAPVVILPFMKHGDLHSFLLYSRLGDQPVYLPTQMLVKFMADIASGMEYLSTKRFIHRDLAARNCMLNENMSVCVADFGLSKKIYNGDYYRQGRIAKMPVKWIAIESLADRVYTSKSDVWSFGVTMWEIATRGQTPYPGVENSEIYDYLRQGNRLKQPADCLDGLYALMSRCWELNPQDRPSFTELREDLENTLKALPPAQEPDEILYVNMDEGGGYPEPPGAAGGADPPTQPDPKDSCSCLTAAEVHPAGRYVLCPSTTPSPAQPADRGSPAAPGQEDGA

[9] = target: T2, panel of 255 wild-type kinases (Homo sapiens, UniProt Q96PY6); details: read-out: %-inhibition, NEK1
T2 sequence (Q96PY6 1-1258): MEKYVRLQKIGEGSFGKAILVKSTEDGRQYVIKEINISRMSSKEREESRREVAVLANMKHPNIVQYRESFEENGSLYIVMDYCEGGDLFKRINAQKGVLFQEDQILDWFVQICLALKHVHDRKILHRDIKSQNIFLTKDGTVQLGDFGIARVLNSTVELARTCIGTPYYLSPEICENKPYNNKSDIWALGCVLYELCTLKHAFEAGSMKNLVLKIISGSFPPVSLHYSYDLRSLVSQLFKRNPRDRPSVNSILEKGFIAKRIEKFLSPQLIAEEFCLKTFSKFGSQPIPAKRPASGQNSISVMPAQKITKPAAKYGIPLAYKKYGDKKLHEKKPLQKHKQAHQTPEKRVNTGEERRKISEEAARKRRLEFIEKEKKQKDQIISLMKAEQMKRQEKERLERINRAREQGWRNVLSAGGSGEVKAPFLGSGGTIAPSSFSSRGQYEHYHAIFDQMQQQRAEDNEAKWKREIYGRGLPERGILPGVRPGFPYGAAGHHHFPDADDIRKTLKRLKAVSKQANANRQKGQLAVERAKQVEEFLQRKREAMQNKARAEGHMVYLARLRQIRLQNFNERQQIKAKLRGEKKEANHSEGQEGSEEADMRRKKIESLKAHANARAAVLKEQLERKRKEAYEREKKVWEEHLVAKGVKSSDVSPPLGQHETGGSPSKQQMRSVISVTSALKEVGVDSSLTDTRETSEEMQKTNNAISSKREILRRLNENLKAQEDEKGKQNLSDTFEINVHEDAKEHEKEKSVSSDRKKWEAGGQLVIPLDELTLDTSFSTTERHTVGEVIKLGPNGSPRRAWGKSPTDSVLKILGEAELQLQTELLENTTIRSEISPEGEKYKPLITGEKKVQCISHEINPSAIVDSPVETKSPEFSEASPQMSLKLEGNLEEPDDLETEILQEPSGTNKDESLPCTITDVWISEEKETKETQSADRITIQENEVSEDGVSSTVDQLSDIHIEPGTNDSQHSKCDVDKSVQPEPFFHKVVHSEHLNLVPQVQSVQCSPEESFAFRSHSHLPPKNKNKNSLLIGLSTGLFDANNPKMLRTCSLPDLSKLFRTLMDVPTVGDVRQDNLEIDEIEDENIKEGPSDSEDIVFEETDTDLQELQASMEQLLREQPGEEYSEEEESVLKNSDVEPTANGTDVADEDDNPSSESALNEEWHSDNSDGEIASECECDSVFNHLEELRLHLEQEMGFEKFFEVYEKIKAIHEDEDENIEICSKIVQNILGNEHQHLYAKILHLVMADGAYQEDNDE

[10] = target: panel of 255 wild-type kinases (Homo sapiens, UniProt P54764); details: read-out: %-inhibition at 1 µmol/L, EPHA4
[11] = MST3, 1 µmol/L single concentration
[12] = p38β, 1 µmol/L single concentration
[13] = AurB kinase assay, 1 µmol/L single concentration
[14] = kinase PKCα, 1 µmol/L single concentration
[15] = kinase SLK, 1 µmol/L single concentration
[16] = kinase RSK2, 1 µmol/L single concentration
[17] = BUB1/BUB3 kinase assay, 1 µmol/L single concentration
[18] = AXL kinase assay, 1 µmol/L single concentration
[19] = NEK1, 1 µmol/L single concentration
[20] = kinase EPHA4, 1 µmol/L single concentration

| Compound | inhibition at 1 µM [1, 11] [%] | inhibition at 1 µM [2, 12] [%] | inhibition at 1 µM [3, 13] [%] | inhibition at 1 µM [4, 14] [%] | inhibition at 1 µM [5, 15] [%] | inhibition at 1 µM [6, 16] [%] | inhibition at 1 µM [7, 17] [%] | inhibition at 1 µM [8, 18] [%] | inhibition at 1 µM [9, 19] [%] | inhibition at 1 µM [10, 20] [%] | inhibition at 1 µM [1] [%] | inhibition at 1 µM [2] [%] | inhibition at 1 µM [3] [%] | inhibition at 1 µM [4] [%] | inhibition at 1 µM [5] [%] | inhibition at 1 µM [6] [%] | inhibition at 1 µM [7] [%] | inhibition at 1 µM [8] [%] | inhibition at 1 µM [9] [%] | inhibition at 1 µM [10] [%] |
| --- | --- | --- | --- | --- | --- | --- | --- | --- | --- | --- | --- | --- | --- | --- | --- | --- | --- | --- | --- | --- |
| Cc1nc(NC(=O)N2CCC[C@H]2C(N)=O)sc1-c1ccnc(C(C)(C)C(F)(F)F)c1 [alpelisib] | -4.63 | 1 | -4.26 | 1.21 | 8 | -1.78 | -4.62 | -3.59 | -0.542 | -5 | – | – | – | – | – | – | – | – | – | – |
| Cn1cc(-c2cc3c(N4CCN(c5ncc([C@@](C)(N)c6ccc(F)cc6)cn5)CC4)ncnn3c2)cn1 [avapritinib] | 12 | -2.41 | 20 | 5 | 36 | 2.57 | 4 | 37 | 56 | 35 | – | – | – | – | – | – | – | – | – | – |
| Cn1cnc2c(F)c(Nc3ccc(Br)cc3F)c(C(=O)NOCCO)cc21 [binimetinib] | 1.89 | 0.0465 | -3.18 | -0.116 | 3.27 | 0.103 | -3.43 | -1.7 | -1.21 | 7.56 | – | – | – | – | – | – | – | – | – | – |
| CNC(=O)c1ccc(-c2cnc3ncc(Cc4ccc5ncccc5c4)n3n2)cc1F [capmatinib] | – | – | – | – | – | – | – | – | – | – | 0.296 | -2.57 | 4.24 | -3.51 | 7.55 | -3 | 1.44 | 34 | -8 | -2.77 |
| COc1cc2ncnc(Nc3ccc(F)c(Cl)c3)c2cc1NC(=O)/C=C/CN1CCCCC1 [dacomitinib] | 27 | 8.44 | 2 | -4.53 | 78 | 8 | 22 | 40 | 0.762 | 38 | – | – | – | – | – | – | – | – | – | – |
| C[C@H](Nc1ncnc2nc[nH]c12)c1cc2cccc(Cl)c2c(=O)n1-c1ccccc1 [duvelisib] | 0.418 | 0.677 | 0.417 | 0.321 | 7.44 | -3.62 | -3.41 | -0.298 | -3.74 | -0.265 | – | – | – | – | – | – | – | – | – | – |
| COC(=O)N[C@@H](C)CNc1nccc(-c2cn(C(C)C)nc2-c2cc(Cl)cc(NS(C)(=O)=O)c2F)n1 [encorafenib] | 7 | 56 | -0.69 | 5 | 6 | 3.78 | 6 | 0.276 | 2.84 | 10 | – | – | – | – | – | – | – | – | – | – |
| CN1CCN(c2ccc(C(=O)Nc3n[nH]c4ccc(Cc5cc(F)cc(F)c5)cc34)c(NC3CCOCC3)c2)CC1 [entrectinib] | 7.48 | 7.47 | 48 | 20 | 63 | – | -5.38 | 96 | -3.78 | 28 | – | – | – | – | – | – | – | – | – | – |
| CCc1nc(C(N)=O)c(Nc2ccc(N3CCC(N4CCN(C)CC4)CC3)c(OC)c2)nc1NC1CCOCC1 [gilteritinib] | 5 | 6 | – | – | 99 | 48 | 54 | 100 | 5.59 | 36 | – | – | 64 | – | – | – | – | – | – | – |
| CCN1CCN(c2ccc(Nc3cc(N(C)C(=O)Nc4c(Cl)c(OC)cc(OC)c4Cl)ncn3)cc2)CC1 [infigratinib] | 7 | -1.57 | -5 | -4 | 16 | -7 | -1.66 | 30 | -5 | 0.256 | – | – | – | – | – | – | – | – | – | – |
| O=C(Nc1cnn2ccc(N3CCC[C@@H]3c3cc(F)ccc3F)nc12)N1CC[C@H](O)C1 [larotrectinib] | 1.65 | -0.0712 | -4.57 | -3 | 5.58 | -7.4 | -6 | 4.22 | -2.72 | -0.0271 | – | – | – | – | – | – | – | – | – | – |
| C[C@H]1Oc2cc(cnc2N)-c2c(nn(C)c2C#N)CN(C)C(=O)c2ccc(F)cc21 [lorlatinib] | -1.26 | 1.15 | 5 | 12 | 90 | -0.881 | -5 | 8 | 0.741 | 25 | – | – | – | – | – | – | – | – | – | – |
| CCN1C(=O)N(c2c(F)c(OC)cc(OC)c2F)Cc2cnc3[nH]c(CN4CCOCC4)cc3c21 [pemigatinib] | 80 | 6 | 2.32 | -1.62 | 0.681 | -5 | -3.37 | 4.45 | 10 | -1.83 | – | – | – | – | – | – | – | – | – | – |
